# Reference: patent US20050203117A1, “Treating allergic and inflammatory conditions” (priority 2002, published 2005)
# Assay: in vivo studies of allergic bronchospasm and cough
smiles,measurement,value
Clc1ccc2c(c1)CCc1cccnc1C2=C1CCNCC1 [desloratadine],effect on allergic bronchospasm and cough,inhibitory effect
